Here are results for 11 molecules from ChEMBL document CHEMBL1145498, “A systematic interaction map of validated kinase inhibitors with Ser/Thr kinases” (Proc Natl Acad Sci U S A, 2007).

Assay [1] has as its target T1, Myotonin-protein kinase (Homo sapiens) (UniProt Q09013).
T1 sequence (whole entry): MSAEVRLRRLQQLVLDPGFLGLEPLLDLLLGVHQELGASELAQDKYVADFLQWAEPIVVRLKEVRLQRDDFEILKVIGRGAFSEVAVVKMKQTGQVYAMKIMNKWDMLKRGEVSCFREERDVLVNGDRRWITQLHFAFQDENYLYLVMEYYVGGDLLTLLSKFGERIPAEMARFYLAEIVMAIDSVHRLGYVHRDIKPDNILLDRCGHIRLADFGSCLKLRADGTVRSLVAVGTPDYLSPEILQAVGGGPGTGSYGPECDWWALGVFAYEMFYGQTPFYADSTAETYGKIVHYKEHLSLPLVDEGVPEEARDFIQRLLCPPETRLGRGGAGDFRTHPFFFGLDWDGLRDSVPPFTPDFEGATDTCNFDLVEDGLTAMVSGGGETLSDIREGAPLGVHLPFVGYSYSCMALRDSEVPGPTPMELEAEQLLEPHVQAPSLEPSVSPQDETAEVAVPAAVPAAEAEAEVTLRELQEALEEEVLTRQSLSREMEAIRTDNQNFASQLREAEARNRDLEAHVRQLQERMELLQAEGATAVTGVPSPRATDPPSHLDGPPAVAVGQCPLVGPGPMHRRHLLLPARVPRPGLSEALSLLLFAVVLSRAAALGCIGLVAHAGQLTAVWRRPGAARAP

For assay [2], the target named is T2, Calcium/calmodulin-dependent protein kinase type IV (Homo sapiens) (UniProt Q16566).
T2 sequence (whole entry): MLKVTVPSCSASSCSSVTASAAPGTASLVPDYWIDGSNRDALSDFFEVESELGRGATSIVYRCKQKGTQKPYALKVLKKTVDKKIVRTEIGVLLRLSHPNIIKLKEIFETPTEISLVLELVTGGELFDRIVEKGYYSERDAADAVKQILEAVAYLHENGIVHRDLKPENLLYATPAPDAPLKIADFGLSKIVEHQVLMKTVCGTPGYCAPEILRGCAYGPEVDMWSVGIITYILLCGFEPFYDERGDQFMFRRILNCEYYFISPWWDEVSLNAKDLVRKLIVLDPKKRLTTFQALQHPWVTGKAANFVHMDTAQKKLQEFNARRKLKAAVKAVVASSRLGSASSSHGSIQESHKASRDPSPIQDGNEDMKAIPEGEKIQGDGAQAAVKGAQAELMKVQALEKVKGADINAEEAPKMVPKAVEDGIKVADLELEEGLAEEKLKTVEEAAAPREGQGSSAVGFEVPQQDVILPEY

Assay [3] has as its target Calcium/calmodulin-dependent protein kinase kinase 2 (Homo sapiens, UniProt Q96RR4).
Assay [4] addresses T3, Mitogen-activated protein kinase kinase kinase 5 (Homo sapiens) (UniProt Q99683).
T3 sequence (whole entry): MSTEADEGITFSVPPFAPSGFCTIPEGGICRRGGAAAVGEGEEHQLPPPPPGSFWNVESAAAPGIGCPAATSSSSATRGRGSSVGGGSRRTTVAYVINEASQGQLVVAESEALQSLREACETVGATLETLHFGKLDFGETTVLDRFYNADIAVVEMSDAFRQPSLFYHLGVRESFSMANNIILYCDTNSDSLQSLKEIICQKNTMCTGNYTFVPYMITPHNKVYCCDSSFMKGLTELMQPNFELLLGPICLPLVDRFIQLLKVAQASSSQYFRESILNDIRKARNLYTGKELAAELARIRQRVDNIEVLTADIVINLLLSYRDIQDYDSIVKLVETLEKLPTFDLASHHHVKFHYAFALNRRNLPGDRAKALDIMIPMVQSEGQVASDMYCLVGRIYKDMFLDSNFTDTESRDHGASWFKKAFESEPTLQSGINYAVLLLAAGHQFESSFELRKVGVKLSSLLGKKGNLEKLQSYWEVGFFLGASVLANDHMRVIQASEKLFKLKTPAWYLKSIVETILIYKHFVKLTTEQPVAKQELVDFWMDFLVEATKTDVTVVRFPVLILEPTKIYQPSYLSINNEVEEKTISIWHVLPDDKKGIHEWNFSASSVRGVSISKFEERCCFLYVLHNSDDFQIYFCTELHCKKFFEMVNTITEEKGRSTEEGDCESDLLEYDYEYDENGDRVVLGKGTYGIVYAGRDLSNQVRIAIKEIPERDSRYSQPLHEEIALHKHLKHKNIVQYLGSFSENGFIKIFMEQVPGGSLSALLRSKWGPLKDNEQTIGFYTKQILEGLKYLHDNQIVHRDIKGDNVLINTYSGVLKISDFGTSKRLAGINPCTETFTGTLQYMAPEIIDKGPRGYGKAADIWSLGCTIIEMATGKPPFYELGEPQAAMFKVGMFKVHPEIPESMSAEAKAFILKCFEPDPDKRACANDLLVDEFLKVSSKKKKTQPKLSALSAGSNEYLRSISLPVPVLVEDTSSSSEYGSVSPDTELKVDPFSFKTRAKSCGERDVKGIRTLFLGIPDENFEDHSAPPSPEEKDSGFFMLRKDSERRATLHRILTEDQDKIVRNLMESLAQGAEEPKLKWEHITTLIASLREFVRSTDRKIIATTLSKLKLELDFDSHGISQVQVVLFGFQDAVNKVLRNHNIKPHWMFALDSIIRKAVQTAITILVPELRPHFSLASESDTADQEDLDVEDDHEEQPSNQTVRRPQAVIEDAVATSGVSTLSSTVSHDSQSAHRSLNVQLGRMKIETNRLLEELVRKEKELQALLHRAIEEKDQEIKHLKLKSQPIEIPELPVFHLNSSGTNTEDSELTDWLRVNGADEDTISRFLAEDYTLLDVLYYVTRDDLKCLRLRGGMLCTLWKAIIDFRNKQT

The target of assay [5] is Serine/threonine-protein kinase PAK 4 (Homo sapiens) (UniProt O96013).
Serine/threonine-protein kinase PAK 4 (Homo sapiens), sequence (O96013 whole entry, looked up): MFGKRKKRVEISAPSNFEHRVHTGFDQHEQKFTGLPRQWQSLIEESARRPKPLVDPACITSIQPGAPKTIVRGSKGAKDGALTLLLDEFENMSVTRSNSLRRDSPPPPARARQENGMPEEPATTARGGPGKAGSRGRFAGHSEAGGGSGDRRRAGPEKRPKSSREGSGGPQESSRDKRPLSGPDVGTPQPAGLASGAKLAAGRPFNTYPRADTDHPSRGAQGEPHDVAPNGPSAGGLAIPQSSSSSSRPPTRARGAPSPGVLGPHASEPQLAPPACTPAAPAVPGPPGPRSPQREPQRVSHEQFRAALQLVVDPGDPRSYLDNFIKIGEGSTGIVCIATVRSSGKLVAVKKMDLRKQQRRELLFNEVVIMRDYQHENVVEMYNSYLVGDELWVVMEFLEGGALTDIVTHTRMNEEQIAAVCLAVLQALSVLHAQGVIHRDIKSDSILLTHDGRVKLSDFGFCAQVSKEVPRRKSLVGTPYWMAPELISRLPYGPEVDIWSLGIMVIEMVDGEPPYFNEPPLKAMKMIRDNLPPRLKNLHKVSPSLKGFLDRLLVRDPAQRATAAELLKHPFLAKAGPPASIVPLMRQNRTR
Assay [6] addresses TRAF2 and NCK-interacting protein kinase (Homo sapiens) (UniProt Q9UKE5).
Assay [7] has as its target Cyclin-dependent kinase 16 (Homo sapiens) (UniProt Q00536).
Assay [8] concerns the target Serine/threonine-protein kinase 26 (Homo sapiens) (UniProt Q9P289).
For assay [9], the target named is Casein kinase I isoform gamma-1 (Homo sapiens) (UniProt Q9HCP0).
Casein kinase I isoform gamma-1 (Homo sapiens), sequence (Q9HCP0 whole entry, looked up, canonical isoform): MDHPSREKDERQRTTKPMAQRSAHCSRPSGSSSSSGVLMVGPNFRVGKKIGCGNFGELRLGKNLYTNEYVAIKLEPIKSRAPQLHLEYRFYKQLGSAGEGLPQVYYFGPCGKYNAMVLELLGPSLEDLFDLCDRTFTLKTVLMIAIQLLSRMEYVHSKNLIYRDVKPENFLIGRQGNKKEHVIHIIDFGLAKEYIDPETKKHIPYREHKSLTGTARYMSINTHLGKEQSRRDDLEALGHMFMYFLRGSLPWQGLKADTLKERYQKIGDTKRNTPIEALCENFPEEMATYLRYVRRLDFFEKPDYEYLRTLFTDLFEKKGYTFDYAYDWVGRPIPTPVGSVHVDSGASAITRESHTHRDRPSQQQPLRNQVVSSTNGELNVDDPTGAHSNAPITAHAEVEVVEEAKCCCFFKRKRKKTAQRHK
Assay [10] concerns the target Ribosomal protein S6 kinase alpha-3 (Homo sapiens) (UniProt P51812).
The target in assay [11] is Serine/threonine-protein kinase pim-3 (Homo sapiens) (UniProt Q86V86).

Serine/threonine-protein kinase 26 (Homo sapiens), sequence (Q9P289 2-416 limits assumed): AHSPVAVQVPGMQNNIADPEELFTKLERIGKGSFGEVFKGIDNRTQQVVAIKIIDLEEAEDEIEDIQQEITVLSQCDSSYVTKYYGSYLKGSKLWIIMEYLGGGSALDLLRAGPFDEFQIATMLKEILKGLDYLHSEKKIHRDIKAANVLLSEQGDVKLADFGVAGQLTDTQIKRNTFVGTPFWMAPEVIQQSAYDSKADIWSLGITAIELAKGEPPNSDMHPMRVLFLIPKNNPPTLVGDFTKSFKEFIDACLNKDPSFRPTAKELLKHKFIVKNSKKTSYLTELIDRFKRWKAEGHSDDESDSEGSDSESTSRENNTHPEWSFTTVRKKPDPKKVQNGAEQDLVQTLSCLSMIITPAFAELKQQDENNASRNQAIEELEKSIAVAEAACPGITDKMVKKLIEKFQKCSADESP
Cyclin-dependent kinase 16 (Homo sapiens), sequence (Q00536 whole entry): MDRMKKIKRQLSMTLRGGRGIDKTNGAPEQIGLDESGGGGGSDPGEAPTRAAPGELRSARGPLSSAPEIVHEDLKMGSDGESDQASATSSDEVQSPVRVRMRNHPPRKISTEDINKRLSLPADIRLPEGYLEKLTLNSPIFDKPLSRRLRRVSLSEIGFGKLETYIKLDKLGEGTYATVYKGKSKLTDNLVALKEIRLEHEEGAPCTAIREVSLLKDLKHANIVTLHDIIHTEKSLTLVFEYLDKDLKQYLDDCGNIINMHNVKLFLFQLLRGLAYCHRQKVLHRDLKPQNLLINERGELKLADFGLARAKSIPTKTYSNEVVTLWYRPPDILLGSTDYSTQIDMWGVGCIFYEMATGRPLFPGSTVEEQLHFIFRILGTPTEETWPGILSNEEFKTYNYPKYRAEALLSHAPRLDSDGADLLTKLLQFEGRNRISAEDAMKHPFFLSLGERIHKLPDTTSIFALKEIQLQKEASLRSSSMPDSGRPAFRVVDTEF
Ribosomal protein S6 kinase alpha-3 (Homo sapiens), sequence (P51812 whole entry): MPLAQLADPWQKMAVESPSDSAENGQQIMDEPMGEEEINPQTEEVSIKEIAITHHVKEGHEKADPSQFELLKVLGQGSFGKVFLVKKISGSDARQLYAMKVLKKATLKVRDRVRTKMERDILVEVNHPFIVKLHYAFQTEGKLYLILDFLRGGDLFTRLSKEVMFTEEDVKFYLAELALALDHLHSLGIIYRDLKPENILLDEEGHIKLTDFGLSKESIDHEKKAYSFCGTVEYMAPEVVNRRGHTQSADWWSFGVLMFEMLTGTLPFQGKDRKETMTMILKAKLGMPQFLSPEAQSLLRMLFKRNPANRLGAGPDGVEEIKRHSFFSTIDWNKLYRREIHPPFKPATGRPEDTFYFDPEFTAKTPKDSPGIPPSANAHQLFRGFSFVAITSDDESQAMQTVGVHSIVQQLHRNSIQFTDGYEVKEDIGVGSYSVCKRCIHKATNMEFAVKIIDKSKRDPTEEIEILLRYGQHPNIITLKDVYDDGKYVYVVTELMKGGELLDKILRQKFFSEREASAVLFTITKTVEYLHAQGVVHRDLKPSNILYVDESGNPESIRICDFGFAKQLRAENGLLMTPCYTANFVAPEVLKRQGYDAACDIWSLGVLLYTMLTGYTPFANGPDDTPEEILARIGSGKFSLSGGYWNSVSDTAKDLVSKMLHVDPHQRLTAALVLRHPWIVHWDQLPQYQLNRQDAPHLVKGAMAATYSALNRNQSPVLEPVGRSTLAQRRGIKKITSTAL
TRAF2 and NCK-interacting protein kinase (Homo sapiens), sequence (Q9UKE5 whole entry, looked up): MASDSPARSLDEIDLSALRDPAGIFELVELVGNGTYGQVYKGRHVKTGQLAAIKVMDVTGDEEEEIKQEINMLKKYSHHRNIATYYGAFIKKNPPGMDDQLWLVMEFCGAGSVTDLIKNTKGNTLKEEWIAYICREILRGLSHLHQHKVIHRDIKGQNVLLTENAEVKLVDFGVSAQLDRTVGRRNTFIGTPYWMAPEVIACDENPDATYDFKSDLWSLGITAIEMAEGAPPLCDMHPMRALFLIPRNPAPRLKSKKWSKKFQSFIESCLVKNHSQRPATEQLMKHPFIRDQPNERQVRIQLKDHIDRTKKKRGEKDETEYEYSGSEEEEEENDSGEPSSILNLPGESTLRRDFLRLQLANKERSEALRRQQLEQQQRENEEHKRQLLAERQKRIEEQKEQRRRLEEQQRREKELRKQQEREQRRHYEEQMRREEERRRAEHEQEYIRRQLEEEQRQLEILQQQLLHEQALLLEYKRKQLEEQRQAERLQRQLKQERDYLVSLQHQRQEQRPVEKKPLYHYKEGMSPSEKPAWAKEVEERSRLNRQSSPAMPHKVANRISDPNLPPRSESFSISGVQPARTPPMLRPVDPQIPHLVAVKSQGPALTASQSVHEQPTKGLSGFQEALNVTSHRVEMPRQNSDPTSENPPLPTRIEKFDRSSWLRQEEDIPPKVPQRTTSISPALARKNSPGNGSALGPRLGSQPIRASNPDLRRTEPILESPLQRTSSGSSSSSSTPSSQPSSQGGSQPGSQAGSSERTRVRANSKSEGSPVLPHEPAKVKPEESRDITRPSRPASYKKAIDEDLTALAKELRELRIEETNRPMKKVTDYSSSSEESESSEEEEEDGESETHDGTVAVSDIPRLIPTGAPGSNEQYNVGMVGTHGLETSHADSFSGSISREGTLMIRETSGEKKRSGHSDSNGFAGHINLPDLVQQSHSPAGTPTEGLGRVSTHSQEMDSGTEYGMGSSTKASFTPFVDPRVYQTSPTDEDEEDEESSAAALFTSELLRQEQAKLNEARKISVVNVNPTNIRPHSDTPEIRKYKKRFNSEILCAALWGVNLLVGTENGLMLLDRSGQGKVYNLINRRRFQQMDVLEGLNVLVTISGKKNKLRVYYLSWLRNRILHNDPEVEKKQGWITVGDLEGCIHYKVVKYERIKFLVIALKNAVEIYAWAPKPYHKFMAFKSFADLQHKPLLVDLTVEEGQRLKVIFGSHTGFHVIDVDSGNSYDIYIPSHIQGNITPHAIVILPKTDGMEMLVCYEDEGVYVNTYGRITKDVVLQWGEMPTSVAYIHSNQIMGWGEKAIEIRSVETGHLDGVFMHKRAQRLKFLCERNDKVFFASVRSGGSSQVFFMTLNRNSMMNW
Calcium/calmodulin-dependent protein kinase kinase 2, sequence (Q96RR4 2-588 limits assumed): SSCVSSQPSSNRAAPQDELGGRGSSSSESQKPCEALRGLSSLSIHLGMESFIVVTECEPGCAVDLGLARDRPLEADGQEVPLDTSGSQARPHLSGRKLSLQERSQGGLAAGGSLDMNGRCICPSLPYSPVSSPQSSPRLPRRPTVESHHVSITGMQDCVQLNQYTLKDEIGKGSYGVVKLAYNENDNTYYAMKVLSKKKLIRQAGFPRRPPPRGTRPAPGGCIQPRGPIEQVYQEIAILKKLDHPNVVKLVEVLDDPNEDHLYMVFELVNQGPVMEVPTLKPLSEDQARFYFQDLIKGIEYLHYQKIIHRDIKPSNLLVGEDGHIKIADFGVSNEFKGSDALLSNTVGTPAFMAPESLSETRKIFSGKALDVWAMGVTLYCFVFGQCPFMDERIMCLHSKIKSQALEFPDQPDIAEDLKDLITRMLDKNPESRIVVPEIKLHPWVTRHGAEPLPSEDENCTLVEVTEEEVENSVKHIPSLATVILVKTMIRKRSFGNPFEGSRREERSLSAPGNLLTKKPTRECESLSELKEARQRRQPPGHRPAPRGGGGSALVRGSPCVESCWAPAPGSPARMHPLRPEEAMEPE

With `CC(C)n1cnc2/c(=N/c3cccc(Cl)c3)nc(NCCO)[nH]c21`, the shift in melting temperature (ΔTm) (in general, the shift of the melting midpoint relative to a reference) turned out to be 0.1 °C in [1]; 1.2 °C in [2]; 2.3 °C in assay [3]; 0.4 °C in [4]; 2.9 °C in [5]; 3.1 °C in assay [6]. Also, the thermal shift (ΔTm) was found to be 0.1 °C in assay [7]; 2.1 °C in [8]; 6.1 °C in assay [9]; 2.1 °C in assay [10]; 2.3 °C in [11].

For the molecule `Brc1c(Br)c(Br)c2[nH]nnc2c1Br` [TETRABROMOBENZOTRIAZOLE], the ΔTm in [1] was 1.1 °C; in assay [2] it was 0.4 °C; in [3], -0.5 °C; in [4], 1.9 °C; in assay [5], -0.1 °C; in assay [6], -0.8 °C. Moreover, the ΔTm in [7] is -0.5 °C; in [8], 1.2 °C; in assay [9], -0.4 °C; in assay [10], 1.7 °C; in assay [11] it was 4.9 °C.

`O=S(=O)(c1cccc2c(Cl)cccc12)N1CCCNCC1`: the ΔTm is -0.2 °C in assay [1]; 0 °C in assay [2]; -0.8 °C in [3]; 0.6 °C in [4]; 0.8 °C in [5]; 0.1 °C in assay [6]. The thermal shift (ΔTm) in assay [7] was -0.4 °C; in assay [8] it was 0 °C; in [9], 0.2 °C; in assay [10] it was -0.2 °C; in assay [11], 3.5 °C.

For `Nc1n[nH]c2nc3ccccc3nc12` [QUINOXALINE1], the ΔTm in assay [1] was -0.1 °C; in [2] it was 0.3 °C; in assay [3] it was 0.2 °C; in assay [4] it was 2.6 °C; in assay [5] it was -0.3 °C; in assay [6], 0.7 °C. The shift in melting temperature (ΔTm) is -0.1 °C in assay [7]; 0.7 °C in assay [8]; 0.7 °C in assay [9]; 0.9 °C in assay [10]; 1.3 °C in assay [11].

Consider `O=c1c2ccccc2[nH]c(=S)n1CCN1CCC(=C(c2ccc(F)cc2)c2ccc(F)cc2)CC1` [DIACYLGLYCEROL KINASE INHIBITOR II], for which the thermal shift (ΔTm) in assay [1] is -0.7 °C; in assay [2], 0.2 °C; in [3] it was 1.8 °C; in assay [4], -0.7 °C; in assay [5], 1.3 °C; in [6] it was 0 °C. Further, the thermal shift (ΔTm) was -0.7 °C in [7]; 2.4 °C in [8]; -0.2 °C in assay [9]; 0.3 °C in assay [10]; 0.9 °C in assay [11].

For `Cc1cc(C=C2C(=O)C=CC2=O)cc(C)c1O`, the ΔTm in assay [1] is 0.3 °C; in assay [2], -0.1 °C; in assay [3] it was -1.4 °C; in assay [4], 2.6 °C; in assay [5], 0.7 °C; in assay [6], -4.1 °C. Besides, the thermal shift (ΔTm) in assay [7] was 2.2 °C; in [8], 0.4 °C; in [9], 0.1 °C; in assay [10] it was -7.9 °C; in [11], 3.6 °C.

With `NS(=O)(=O)c1ccc(Nc2nc(OCC3CCCCC3)c3nc[nH]c3n2)cc1`, the shift in melting temperature (ΔTm) was 3.2 °C in assay [1]; 0.7 °C in assay [2]; 0.8 °C in [3]; 2.4 °C in assay [4]; 3.8 °C in [5]; -0.3 °C in [6]. The ΔTm was 3.2 °C in assay [7]; 2.9 °C in assay [8]; 2.6 °C in assay [9]; 1.4 °C in [10]; 1.3 °C in assay [11].

Consider `O=C1NC(=O)c2c1c1c3ccccc3n3c1c1c2c2ccccc2n1C1CCC3O1`, for which the ΔTm was 6.8 °C in assay [1]; -0.2 °C in assay [2]; -0.3 °C in assay [3]; 3.9 °C in assay [4]; 2.8 °C in assay [5]; 7.6 °C in assay [6]. Moreover, the shift in melting temperature (ΔTm) in assay [7] is 0.3 °C; in assay [8], 1.5 °C; in assay [9], 0.2 °C; in assay [10], -0.4 °C; in assay [11], 7.3 °C.

Consider `CCCNC(=O)Nc1ccc(Oc2ncnc3cc(OC)c(OC)cc23)cc1Cl` [KRN-633], for which the shift in melting temperature (ΔTm) is 0.6 °C in [1]; 0.9 °C in assay [2]; 0.7 °C in assay [3]; 0.3 °C in assay [4]; 0.5 °C in assay [5]; 0.2 °C in [6]. In addition, the shift in melting temperature (ΔTm) was -0.1 °C in [7]; 1.2 °C in assay [8]; 0.8 °C in assay [9]; 10.7 °C in assay [10]; 4.9 °C in assay [11].

On to `NC1=N/C(=C2/CCNC(=O)c3[nH]ccc32)C(=O)N1` [DEBROMOHYMENIALDISINE], for which the ΔTm in assay [1] worked out at 2.3 °C; in assay [2] it was 0 °C; in assay [3] it was 1.4 °C; in [4] it was 4.6 °C; in assay [5], 0.9 °C; in assay [6], 1.6 °C. Moreover, the ΔTm in [7] was found to be 0 °C; in [8] it was 1.3 °C; in assay [9], 3.6 °C; in assay [10], 6.4 °C; in assay [11], 2.4 °C.

In the case of `Nc1cccc(-c2cc3c(Oc4cccc(O)c4)ncnc3[nH]2)c1`, the thermal shift (ΔTm) in assay [1] is 2.5 °C; in [2], 0.2 °C; in assay [3], 1.4 °C; in [4] it was 0.5 °C; in [5], 2.8 °C; in assay [6], -0.4 °C. Moreover, the thermal shift (ΔTm) in [7] came to 0.1 °C; in assay [8] it was 0.8 °C; in assay [9], 1.5 °C; in assay [10] it was 5.7 °C; in [11], 0.3 °C.
